Measured values reported in the kinase profiling compilation of Christmann-Franck et al. (2016).

What was measured:
PIM1 (human) [1] = molecular target: PIM1 (human) (UniProt P11309); assay: SelectScreen, TR FRET
PIM2 (human) [2] = molecular target: PIM2 (human) (UniProt Q9P1W9); assay: SelectScreen, TR FRET
STK17B (human) = STK17B (human) (UniProt O94768); assay: KINOMEscan competition binding; settings: compound 10.0 µM
RPS6KA4 KD2 (human) = RPS6KA4 KD2 (human) (UniProt O75676); assay: KINOMEscan competition binding; settings: compound 10.0 µM
AAK1 (human) = AAK1 (human) (UniProt Q2M2I8); assay: KINOMEscan competition binding; settings: compound 10.0 µM
RPS6KA6 KD2 (human) = RPS6KA6 KD2 (human) (UniProt Q9UK32); assay: KINOMEscan competition binding; settings: compound 10.0 µM
CDK16 (human) = CDK16 (human) (UniProt Q00536); assay: KINOMEscan competition binding; settings: compound 10.0 µM
[3] = molecular target: TYK2 JH2 pseudokinase (human) (UniProt P29597); assay: KINOMEscan competition binding; settings: compound 10.0 µM
PIM3 (human) = PIM3 (human) (UniProt Q86V86); assay: KINOMEscan competition binding; settings: compound 10.0 µM
MAPKAPK5 (human) = MAPKAPK5 (human) (UniProt Q8IW41); assay: KINOMEscan competition binding; settings: compound 10.0 µM
PIM1 (human) [4] = molecular target: PIM1 (human) (UniProt P11309); assay: KINOMEscan competition binding; settings: compound 10.0 µM
MAP3K7 (human) = MAP3K7 (human) (UniProt O43318); assay: KINOMEscan competition binding; settings: compound 10.0 µM
PIK3CG (human) = PIK3CG (human) (UniProt P48736); assay: KINOMEscan competition binding; settings: compound 10.0 µM
GAK (human) = GAK (human) (UniProt O14976); assay: KINOMEscan competition binding; settings: compound 10.0 µM
RPS6KA2 KD2 (human) = RPS6KA2 KD2 (human) (UniProt Q15349); assay: KINOMEscan competition binding; settings: compound 10.0 µM
CDK7 (human) = CDK7 (human) (UniProt P50613); assay: KINOMEscan competition binding; settings: compound 10.0 µM
CLK2 (human) = CLK2 (human) (UniProt P49760); assay: KINOMEscan competition binding; settings: compound 10.0 µM
MKNK2 (human) = MKNK2 (human) (UniProt Q9HBH9); assay: KINOMEscan competition binding; settings: compound 10.0 µM
RIOK2 (human) = RIOK2 (human) (UniProt Q9BVS4); assay: KINOMEscan competition binding; settings: compound 10.0 µM
[5] = molecular target: JAK1 JH2 pseudokinase (human) (UniProt P23458); assay: KINOMEscan competition binding; settings: compound 10.0 µM
CSNK2A1 (human) = CSNK2A1 (human) (UniProt P68400); assay: KINOMEscan competition binding; settings: compound 10.0 µM
PLK4 (human) = PLK4 (human) (UniProt O00444); assay: KINOMEscan competition binding; settings: compound 10.0 µM
MAPK15 (human) = MAPK15 (human) (UniProt Q8TD08); assay: KINOMEscan competition binding; settings: compound 10.0 µM
CSNK2A2 (human) = CSNK2A2 (human) (UniProt P19784); assay: KINOMEscan competition binding; settings: compound 10.0 µM
TAOK1 (human) = TAOK1 (human) (UniProt Q7L7X3); assay: KINOMEscan competition binding; settings: compound 10.0 µM
PIM2 (human) [6] = molecular target: PIM2 (human) (UniProt Q9P1W9); assay: KINOMEscan competition binding; settings: compound 10.0 µM
ROCK2 (human) = ROCK2 (human) (UniProt O75116); assay: KINOMEscan competition binding; settings: compound 10.0 µM
CLK1 (human) = CLK1 (human) (UniProt P49759); assay: KINOMEscan competition binding; settings: compound 10.0 µM
MAP2K2 (human) = MAP2K2 (human) (UniProt P36507); assay: KINOMEscan competition binding; settings: compound 10.0 µM
DAPK3 (human) = DAPK3 (human) (UniProt O43293); assay: KINOMEscan competition binding; settings: compound 10.0 µM
MYLK3 (human) = MYLK3 (human) (UniProt Q32MK0); assay: KINOMEscan competition binding; settings: compound 10.0 µM
BMPR1B (human) = BMPR1B (human) (UniProt O00238); assay: KINOMEscan competition binding; settings: compound 10.0 µM
TAOK3 (human) = TAOK3 (human) (UniProt Q9H2K8); assay: KINOMEscan competition binding; settings: compound 10.0 µM
HIPK1 (human) = HIPK1 (human) (UniProt Q86Z02); assay: KINOMEscan competition binding; settings: compound 10.0 µM
STK24 (human) = STK24 (human) (UniProt Q9Y6E0); assay: KINOMEscan competition binding; settings: compound 10.0 µM
MAP2K3 (human) = MAP2K3 (human) (UniProt P46734); assay: KINOMEscan competition binding; settings: compound 10.0 µM
DAPK1 (human) = DAPK1 (human) (UniProt P53355); assay: KINOMEscan competition binding; settings: compound 10.0 µM
CLK4 (human) = CLK4 (human) (UniProt Q9HAZ1); assay: KINOMEscan competition binding; settings: compound 10.0 µM
DAPK2 (human) = DAPK2 (human) (UniProt Q9UIK4); assay: KINOMEscan competition binding; settings: compound 10.0 µM
CAMKK1 (human) = CAMKK1 (human) (UniProt Q8N5S9); assay: KINOMEscan competition binding; settings: compound 10.0 µM
TLK1 (human) = TLK1 (human) (UniProt Q9UKI8); assay: KINOMEscan competition binding; settings: compound 10.0 µM
RPS6KA1 KD2 (human) = RPS6KA1 KD2 (human) (UniProt Q15418); assay: KINOMEscan competition binding; settings: compound 10.0 µM
CLK3 (human) = CLK3 (human) (UniProt P49761); assay: KINOMEscan competition binding; settings: compound 10.0 µM
STK17A (human) = STK17A (human) (UniProt Q9UEE5); assay: KINOMEscan competition binding; settings: compound 10.0 µM
RIPK4 (human) = RIPK4 (human) (UniProt P57078); assay: KINOMEscan competition binding; settings: compound 10.0 µM
MYLK (human) = MYLK (human) (UniProt Q15746); assay: KINOMEscan competition binding; settings: compound 10.0 µM
PIP4K2B (human) = PIP4K2B (human) (UniProt P78356); assay: KINOMEscan competition binding; settings: compound 10.0 µM

Chain of PIM1 (human) (P11309 whole entry, looked up): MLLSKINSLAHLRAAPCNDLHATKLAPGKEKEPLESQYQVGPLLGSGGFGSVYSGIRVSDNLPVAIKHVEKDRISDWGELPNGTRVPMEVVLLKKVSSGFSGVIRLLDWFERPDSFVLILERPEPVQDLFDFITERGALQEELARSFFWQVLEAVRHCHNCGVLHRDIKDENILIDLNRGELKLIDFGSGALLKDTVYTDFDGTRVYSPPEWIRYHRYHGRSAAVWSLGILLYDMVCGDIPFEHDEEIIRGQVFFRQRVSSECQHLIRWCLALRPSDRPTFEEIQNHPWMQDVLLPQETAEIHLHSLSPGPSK
Chain of PIM2 (human) (Q9P1W9 whole entry, looked up): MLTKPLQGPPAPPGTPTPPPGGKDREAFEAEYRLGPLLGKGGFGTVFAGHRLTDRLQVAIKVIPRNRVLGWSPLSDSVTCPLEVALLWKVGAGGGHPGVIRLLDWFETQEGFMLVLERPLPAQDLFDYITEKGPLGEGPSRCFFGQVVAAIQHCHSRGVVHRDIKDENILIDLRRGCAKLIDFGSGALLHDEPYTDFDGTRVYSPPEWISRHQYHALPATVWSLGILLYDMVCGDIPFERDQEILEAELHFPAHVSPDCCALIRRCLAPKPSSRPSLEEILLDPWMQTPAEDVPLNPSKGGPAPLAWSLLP
Chain of RPS6KA2 KD2 (human) (Q15349 whole entry, looked up): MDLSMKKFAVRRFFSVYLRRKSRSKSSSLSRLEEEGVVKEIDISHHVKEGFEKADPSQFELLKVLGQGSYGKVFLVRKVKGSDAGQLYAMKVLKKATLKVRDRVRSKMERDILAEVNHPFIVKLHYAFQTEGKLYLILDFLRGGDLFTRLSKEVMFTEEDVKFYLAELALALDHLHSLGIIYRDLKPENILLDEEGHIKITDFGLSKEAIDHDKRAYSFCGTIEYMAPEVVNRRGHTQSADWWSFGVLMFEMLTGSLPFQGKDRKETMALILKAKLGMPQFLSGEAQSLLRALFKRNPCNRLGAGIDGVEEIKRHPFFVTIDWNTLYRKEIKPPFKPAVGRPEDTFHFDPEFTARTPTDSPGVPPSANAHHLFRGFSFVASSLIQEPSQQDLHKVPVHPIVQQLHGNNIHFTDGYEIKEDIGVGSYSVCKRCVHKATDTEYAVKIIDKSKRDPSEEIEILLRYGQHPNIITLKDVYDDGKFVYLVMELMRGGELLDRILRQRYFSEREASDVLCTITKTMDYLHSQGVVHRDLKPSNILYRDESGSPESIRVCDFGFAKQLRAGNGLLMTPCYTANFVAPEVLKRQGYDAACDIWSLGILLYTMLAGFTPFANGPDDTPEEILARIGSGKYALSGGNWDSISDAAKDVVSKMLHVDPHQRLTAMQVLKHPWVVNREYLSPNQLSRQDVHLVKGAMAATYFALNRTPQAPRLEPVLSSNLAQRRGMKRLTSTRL
Chain of RPS6KA4 KD2 (human) (O75676 whole entry, looked up): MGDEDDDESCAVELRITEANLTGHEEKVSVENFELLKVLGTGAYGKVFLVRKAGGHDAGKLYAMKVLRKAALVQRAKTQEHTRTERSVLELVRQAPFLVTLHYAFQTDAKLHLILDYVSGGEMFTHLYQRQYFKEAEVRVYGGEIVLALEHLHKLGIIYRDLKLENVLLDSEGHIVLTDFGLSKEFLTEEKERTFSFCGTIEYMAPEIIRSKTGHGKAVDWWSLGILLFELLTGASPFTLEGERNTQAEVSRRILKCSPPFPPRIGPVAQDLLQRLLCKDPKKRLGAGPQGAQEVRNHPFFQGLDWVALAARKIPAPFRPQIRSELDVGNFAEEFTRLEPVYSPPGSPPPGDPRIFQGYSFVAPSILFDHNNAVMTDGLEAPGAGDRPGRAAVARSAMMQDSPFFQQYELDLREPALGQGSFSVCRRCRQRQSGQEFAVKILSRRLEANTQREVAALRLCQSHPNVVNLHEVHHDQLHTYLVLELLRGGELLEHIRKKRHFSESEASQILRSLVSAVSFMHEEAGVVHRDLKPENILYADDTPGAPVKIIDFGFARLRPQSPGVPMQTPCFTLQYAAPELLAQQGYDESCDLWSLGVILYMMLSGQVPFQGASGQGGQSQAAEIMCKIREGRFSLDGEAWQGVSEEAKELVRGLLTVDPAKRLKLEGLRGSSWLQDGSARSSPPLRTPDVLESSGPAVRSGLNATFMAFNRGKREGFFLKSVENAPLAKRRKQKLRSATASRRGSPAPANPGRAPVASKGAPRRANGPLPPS
Chain of DAPK2 (human) (Q9UIK4 whole entry, looked up): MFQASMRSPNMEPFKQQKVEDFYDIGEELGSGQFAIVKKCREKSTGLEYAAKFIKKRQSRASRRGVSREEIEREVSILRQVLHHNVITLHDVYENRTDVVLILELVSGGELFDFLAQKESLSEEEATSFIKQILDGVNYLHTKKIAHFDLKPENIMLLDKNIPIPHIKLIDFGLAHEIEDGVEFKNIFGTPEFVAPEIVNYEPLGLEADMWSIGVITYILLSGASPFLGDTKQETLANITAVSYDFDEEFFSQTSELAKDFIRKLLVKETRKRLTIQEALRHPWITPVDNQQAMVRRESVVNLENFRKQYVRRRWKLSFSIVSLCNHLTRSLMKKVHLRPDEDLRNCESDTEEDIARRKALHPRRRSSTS
Chain of JAK1 JH2 pseudokinase (human) (P23458 whole entry, looked up): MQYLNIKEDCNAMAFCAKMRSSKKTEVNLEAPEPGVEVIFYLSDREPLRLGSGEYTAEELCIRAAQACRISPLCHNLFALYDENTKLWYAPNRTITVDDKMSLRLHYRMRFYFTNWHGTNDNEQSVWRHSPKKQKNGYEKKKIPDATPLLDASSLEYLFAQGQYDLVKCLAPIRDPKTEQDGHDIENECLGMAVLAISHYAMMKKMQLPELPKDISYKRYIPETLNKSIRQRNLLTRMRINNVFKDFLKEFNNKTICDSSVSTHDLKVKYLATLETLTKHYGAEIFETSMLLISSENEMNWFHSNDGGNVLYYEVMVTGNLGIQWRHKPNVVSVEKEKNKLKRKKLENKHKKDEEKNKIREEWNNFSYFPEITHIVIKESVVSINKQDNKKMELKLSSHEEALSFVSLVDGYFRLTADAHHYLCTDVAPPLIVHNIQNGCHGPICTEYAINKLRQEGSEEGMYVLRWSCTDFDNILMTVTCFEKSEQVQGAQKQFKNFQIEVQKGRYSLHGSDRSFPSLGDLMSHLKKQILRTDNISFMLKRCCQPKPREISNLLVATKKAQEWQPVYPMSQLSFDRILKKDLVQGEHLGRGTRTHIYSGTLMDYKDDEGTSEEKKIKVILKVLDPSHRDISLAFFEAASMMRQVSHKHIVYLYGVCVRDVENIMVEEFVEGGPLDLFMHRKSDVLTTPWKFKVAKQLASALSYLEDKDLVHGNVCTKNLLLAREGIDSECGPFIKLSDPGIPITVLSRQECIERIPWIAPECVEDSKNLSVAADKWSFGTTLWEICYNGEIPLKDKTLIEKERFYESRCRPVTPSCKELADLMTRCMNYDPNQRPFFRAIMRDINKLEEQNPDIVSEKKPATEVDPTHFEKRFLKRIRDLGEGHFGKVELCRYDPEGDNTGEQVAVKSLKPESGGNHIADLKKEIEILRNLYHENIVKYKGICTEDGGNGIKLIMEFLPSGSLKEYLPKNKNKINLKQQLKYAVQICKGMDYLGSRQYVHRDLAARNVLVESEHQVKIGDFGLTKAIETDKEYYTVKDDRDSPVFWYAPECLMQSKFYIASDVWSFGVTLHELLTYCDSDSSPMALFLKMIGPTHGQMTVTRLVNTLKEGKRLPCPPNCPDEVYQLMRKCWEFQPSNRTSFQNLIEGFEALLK
Chain of DAPK3 (human) (O43293 whole entry, looked up): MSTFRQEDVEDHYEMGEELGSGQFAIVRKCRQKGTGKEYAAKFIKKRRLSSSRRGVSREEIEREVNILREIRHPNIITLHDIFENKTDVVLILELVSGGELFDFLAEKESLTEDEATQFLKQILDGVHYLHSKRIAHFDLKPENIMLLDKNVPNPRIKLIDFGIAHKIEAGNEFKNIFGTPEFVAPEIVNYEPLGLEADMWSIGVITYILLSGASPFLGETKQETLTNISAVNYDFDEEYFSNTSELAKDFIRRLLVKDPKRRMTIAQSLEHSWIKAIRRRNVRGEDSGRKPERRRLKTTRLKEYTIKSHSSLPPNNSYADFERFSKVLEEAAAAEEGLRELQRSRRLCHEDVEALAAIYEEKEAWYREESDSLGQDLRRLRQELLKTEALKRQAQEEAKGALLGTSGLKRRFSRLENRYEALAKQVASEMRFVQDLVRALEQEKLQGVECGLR
Chain of TAOK3 (human) (Q9H2K8 whole entry, looked up): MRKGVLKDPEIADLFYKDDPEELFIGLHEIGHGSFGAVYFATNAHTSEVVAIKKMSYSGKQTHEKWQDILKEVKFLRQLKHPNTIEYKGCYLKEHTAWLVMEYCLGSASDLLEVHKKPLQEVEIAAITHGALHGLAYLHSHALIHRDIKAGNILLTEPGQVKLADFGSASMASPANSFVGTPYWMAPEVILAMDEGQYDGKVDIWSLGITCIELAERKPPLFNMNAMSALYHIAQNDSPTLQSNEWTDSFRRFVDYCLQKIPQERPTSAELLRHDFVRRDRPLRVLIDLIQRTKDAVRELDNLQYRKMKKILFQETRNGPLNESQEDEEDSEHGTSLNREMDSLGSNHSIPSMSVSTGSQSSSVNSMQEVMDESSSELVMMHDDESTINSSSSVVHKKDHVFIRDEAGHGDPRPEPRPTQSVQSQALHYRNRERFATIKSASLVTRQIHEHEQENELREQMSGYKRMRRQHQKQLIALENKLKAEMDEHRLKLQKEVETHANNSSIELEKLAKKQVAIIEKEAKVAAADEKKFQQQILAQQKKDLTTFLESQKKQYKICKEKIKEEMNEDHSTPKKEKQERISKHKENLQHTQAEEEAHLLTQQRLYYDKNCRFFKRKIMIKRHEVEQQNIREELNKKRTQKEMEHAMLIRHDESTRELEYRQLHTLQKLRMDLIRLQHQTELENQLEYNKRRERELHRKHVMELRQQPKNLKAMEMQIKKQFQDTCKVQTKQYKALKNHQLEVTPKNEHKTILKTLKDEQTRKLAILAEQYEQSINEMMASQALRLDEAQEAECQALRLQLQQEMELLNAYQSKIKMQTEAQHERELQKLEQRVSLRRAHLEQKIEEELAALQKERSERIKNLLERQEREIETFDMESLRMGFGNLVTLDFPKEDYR

IC50 (PIM1 (human) [1]): 128 nM
IC50 (PIM2 (human) [2]): 144 nM
kinase still bound, per cent of control (STK17B (human)): 0.6%
kinase still bound, per cent of control (RPS6KA4 KD2 (human)): 3.4%
kinase still bound, per cent of control (AAK1 (human)): 31%
kinase still bound, per cent of control (RPS6KA6 KD2 (human)): 27%
kinase still bound, per cent of control (CDK16 (human)): 18%
kinase still bound, per cent of control [3]: 10%
kinase still bound, per cent of control (PIM3 (human)): 9%
kinase still bound, per cent of control (MAPKAPK5 (human)): 32%
kinase still bound, per cent of control (PIM1 (human) [4]): 5.6%
kinase still bound, per cent of control (MAP3K7 (human)): 8.6%
kinase still bound, per cent of control (PIK3CG (human)): 2.1%
kinase still bound, per cent of control (GAK (human)): 29%
kinase still bound, per cent of control (RPS6KA2 KD2 (human)): 25%
kinase still bound, per cent of control (CDK7 (human)): 3.2%
kinase still bound, per cent of control (CLK2 (human)): 2%
kinase still bound, per cent of control (MKNK2 (human)): 27%
kinase still bound, per cent of control (RIOK2 (human)): 29%
kinase still bound, per cent of control [5]: 26%
kinase still bound, per cent of control (CSNK2A1 (human)): 20%
kinase still bound, per cent of control (PLK4 (human)): 23%
kinase still bound, per cent of control (CSNK2A2 (human)): 19%
kinase still bound, per cent of control (TAOK1 (human)): 5.4%
kinase still bound, per cent of control (PIM2 (human) [6]): 0.5%
kinase still bound, per cent of control (ROCK2 (human)): 21%
kinase still bound, per cent of control (CLK1 (human)): 2.4%
kinase still bound, per cent of control (MAP2K2 (human)): 33%
kinase still bound, per cent of control (DAPK3 (human)): 15%
kinase still bound, per cent of control (MYLK3 (human)): 15%
kinase still bound, per cent of control (BMPR1B (human)): 19%
kinase still bound, per cent of control (TAOK3 (human)): 7.4%
kinase still bound, per cent of control (HIPK1 (human)): 0.65%
kinase still bound, per cent of control (STK24 (human)): 25%
kinase still bound, per cent of control (MAP2K3 (human)): 30%
kinase still bound, per cent of control (DAPK1 (human)): 12%
kinase still bound, per cent of control (CLK4 (human)): 5.8%
kinase still bound, per cent of control (DAPK2 (human)): 14%
kinase still bound, per cent of control (CAMKK1 (human)): 32%
kinase still bound, per cent of control (TLK1 (human)): 14%
kinase still bound, per cent of control (RPS6KA1 KD2 (human)): 21%
kinase still bound, per cent of control (CLK3 (human)): 25%
kinase still bound, per cent of control (STK17A (human)): 0.1%
kinase still bound, per cent of control (RIPK4 (human)): 5.5%
kinase still bound, per cent of control (MYLK (human)): 32%
kinase still bound, per cent of control (PIP4K2B (human)): 34%
SMILES: N=C1NC(=O)/C(=C/c2ccc(-c3ccc(C(=O)Nc4ccc(N5CCNCC5)cc4)cc3O)o2)S1
kinase still bound, per cent of control (MAPK15 (human)): 0.95%
